In ChEMBL document CHEMBL6087485, “Novel 3-Sulfonamide Dual-Tail Pyrrol-2-one Bridged Molecules as Potent Human Carbonic Anhydrase Isoform Inhibitors: Design, Synthesis, Molecular Modeling Investigation, and Anticancer Activity in MeWo, SK-BR-3, and MG-63 Cell Lines” (J Med Chem, 2025):
Calls of active or inactive are those of the source. No cut-off for these calls is given here.

Assays:
MeWo [1] = test: Cytotoxicity against human MeWo cells at 10 uM incubated for 24 hrs by MTS assay; type: functional, cell-based
MeWo [2] = test: Cytotoxicity against human MeWo cells at 50 uM incubated for 24 hrs by MTS assay; type: functional, cell-based
[3] = Cytotoxicity against human HGF cells at 50 uM incubated for 24 hrs by MTS assay; type: toxicity, cell-based
SK-BR-3 [4] = test: Cytotoxicity against human SK-BR-3 cells at 50 uM incubated for 24 hrs by MTS assay; type: functional, cell-based
MG-63 [5] = test: Cytotoxicity against human MG-63 cells at 10 uM incubated for 24 hrs by MTS assay; type: functional, cell-based
MG-63 [6] = test: Cytotoxicity against human MG-63 cells at 50 uM incubated for 24 hrs by MTS assay; type: functional, cell-based
Carbonic anhydrase 9 = Carbonic anhydrase 9 (Homo sapiens, UniProt Q16790); test: Inhibition of recombinant human CA-IX incubated for 15 mins by phenol red dye based stopped-flow CO2 hydration assay
[7] = Cytotoxicity against human HGF cells at 10 uM incubated for 24 hrs by MTS assay; type: toxicity, cell-based
SK-BR-3 [8] = test: Cytotoxicity against human SK-BR-3 cells at 10 uM incubated for 24 hrs by MTS assay; type: functional, cell-based
[9] = Synergistic cytotoxicity against human HGF cells assessed as cell viability at 10 uM incubated for 24 hrs in presence of DOX by MTS assay relative to control; type: toxicity, cell-based; conditions: read-out: Activity
[10] = Synergistic cytotoxicity against human HGF cells assessed as inhibition of cell viability incubated for 24 hrs in presence of DOX by MTS assay; type: toxicity, cell-based
MeWo [11] = test: Synergistic cytotoxicity against human MeWo cells assessed as inhibition of cell viability incubated for 24 hrs in presence of DOX by MTS assay; type: functional, cell-based
MeWo [12] = test: Synergistic cytotoxicity against human MeWo cells assessed as inhibition of cell viability at 10 uM incubated for 24 hrs in presence of DOX by MTS assay; type: functional, cell-based
[13] = Cytotoxicity against human HGF cells assessed as inhibition of cell viability incubated for 24 hrs by MTS assay; type: toxicity, cell-based
MeWo [14] = test: Cytotoxicity against human MeWo cells assessed as inhibition of cell viability incubated for 24 hrs by MTS assay; type: functional, cell-based

| SMILES | Activity (MeWo [1]) | Activity (MG-63 [5]) | Ki (Carbonic anhydrase 9) | Activity [7] | Activity (SK-BR-3 [8]) | other results |
| --- | --- | --- | --- | --- | --- | --- |
| CCCCc1ccc(C2C=C(Nc3cccc(S(N)(=O)=O)c3)C(=O)N2c2cccc(S(N)(=O)=O)c2)cc1 (stereo unspecified) | inactive | inactive | 564 nM | Non-toxic | inactive | Activity (MeWo [2]): Active; Activity [3]: Toxic; Activity (SK-BR-3 [4]): Active; Activity (MG-63 [6]): Active |
| COc1ccccc1C1C=C(Nc2cccc(S(N)(=O)=O)c2)C(=O)N1c1cccc(S(N)(=O)=O)c1 (stereo unspecified) |  |  | 93.8 nM |  |  |  |
| NS(=O)(=O)c1cccc(NC2=CC(c3cc(C(F)(F)F)cc(C(F)(F)F)c3)N(c3cccc(S(N)(=O)=O)c3)C2=O)c1 (stereo unspecified) |  |  | 539 nM |  |  |  |
| NS(=O)(=O)c1cccc(NC2=CC(c3ccccc3)N(c3cccc(S(N)(=O)=O)c3)C2=O)c1 (stereo unspecified) |  |  | 58 nM |  |  |  |
| COc1cc(C2C=C(Nc3cccc(S(N)(=O)=O)c3)C(=O)N2c2cccc(S(N)(=O)=O)c2)ccc1O (stereo unspecified) |  |  | 369 nM |  |  |  |
| N#Cc1ccc(C2C=C(Nc3cccc(S(N)(=O)=O)c3)C(=O)N2c2cccc(S(N)(=O)=O)c2)cc1 (stereo unspecified) |  |  | 345 nM |  |  |  |
| NS(=O)(=O)c1cccc(NC2=CC(c3ccccc3O)N(c3cccc(S(N)(=O)=O)c3)C2=O)c1 (stereo unspecified) | inactive | inactive | 345 nM | Non-toxic | inactive | viability at 24 h, 10 µM [9]: > 70%; Activity (MeWo [2]): Active; Activity [3]: Non-toxic; IC50 at 24 h [10]: 36400 nM; IC50 (MeWo [11]): 12300 nM; Activity (MeWo [12]): Active; IC50 at 24 h [13]: 117000 nM; IC50 (MeWo [14]): 94300 nM |
| NS(=O)(=O)c1cccc(NC2=CC(c3ccc(Br)cc3)N(c3cccc(S(N)(=O)=O)c3)C2=O)c1 (stereo unspecified) |  |  | 386 nM |  |  |  |
| NS(=O)(=O)c1cccc(NC2=CC(c3ccc4c(c3)OCO4)N(c3cccc(S(N)(=O)=O)c3)C2=O)c1 (stereo unspecified) |  |  | 443 nM |  |  |  |
| COc1cc(C2C=C(Nc3cccc(S(N)(=O)=O)c3)C(=O)N2c2cccc(S(N)(=O)=O)c2)cc(OC)c1O (stereo unspecified) | inactive | inactive | 30.3 nM | Non-toxic | inactive |  |
| NS(=O)(=O)c1cccc(NC2=CC(c3ccc(F)cc3)N(c3cccc(S(N)(=O)=O)c3)C2=O)c1 (stereo unspecified) | inactive | inactive | 50.1 nM | Non-toxic | inactive | viability at 24 h, 10 µM [9]: > 70%; IC50 at 24 h [10]: 19600 nM; IC50 (MeWo [11]): 11200 nM; Activity (MeWo [12]): Active; IC50 at 24 h [13]: 85800 nM; IC50 (MeWo [14]): 68600 nM |
| CC(C)c1ccc(C2C=C(Nc3cccc(S(N)(=O)=O)c3)C(=O)N2c2cccc(S(N)(=O)=O)c2)cc1 (stereo unspecified) |  |  | 615 nM |  |  |  |
| COc1ccc(C2C=C(Nc3cccc(S(N)(=O)=O)c3)C(=O)N2c2cccc(S(N)(=O)=O)c2)cc1OC (stereo unspecified) |  |  | 87.2 nM |  |  |  |
| NS(=O)(=O)c1cccc(NC2=CC(c3ccco3)N(c3cccc(S(N)(=O)=O)c3)C2=O)c1 (stereo unspecified) |  |  | 79.9 nM |  |  |  |
| NS(=O)(=O)c1cccc(NC2=CC(c3ccc(C(F)(F)F)cc3)N(c3cccc(S(N)(=O)=O)c3)C2=O)c1 (stereo unspecified) |  |  | 831 nM |  |  |  |
| COc1ccc(O)c(C2C=C(Nc3cccc(S(N)(=O)=O)c3)C(=O)N2c2cccc(S(N)(=O)=O)c2)c1 (stereo unspecified) |  |  | 52.4 nM |  |  |  |
| COc1cccc(C2C=C(Nc3cccc(S(N)(=O)=O)c3)C(=O)N2c2cccc(S(N)(=O)=O)c2)c1O (stereo unspecified) | inactive | inactive | 7 nM | Non-toxic | inactive | viability at 24 h, 10 µM [9]: > 70%; IC50 at 24 h [10]: 27500 nM; IC50 (MeWo [11]): 11300 nM; Activity (MeWo [12]): Active; IC50 at 24 h [13]: 70700 nM; IC50 (MeWo [14]): 63300 nM |
| COc1ccc(C2C=C(Nc3cccc(S(N)(=O)=O)c3)C(=O)N2c2cccc(S(N)(=O)=O)c2)cc1O (stereo unspecified) | inactive | inactive | 95.1 nM | Non-toxic | inactive |  |
